“Also recorded” adds a separate entry of the source.

For one test, the target named is T1, klotho (Homo sapiens, UniProt Q9UEF7).
T1 construct: The sKL recombinant protein produced is mouse aa 35-982 and human aa 34-981; made in house; host or cells: Expi293 (HEK293) cells, stably transfected
T1 sequence (Q9UEF7 34-981): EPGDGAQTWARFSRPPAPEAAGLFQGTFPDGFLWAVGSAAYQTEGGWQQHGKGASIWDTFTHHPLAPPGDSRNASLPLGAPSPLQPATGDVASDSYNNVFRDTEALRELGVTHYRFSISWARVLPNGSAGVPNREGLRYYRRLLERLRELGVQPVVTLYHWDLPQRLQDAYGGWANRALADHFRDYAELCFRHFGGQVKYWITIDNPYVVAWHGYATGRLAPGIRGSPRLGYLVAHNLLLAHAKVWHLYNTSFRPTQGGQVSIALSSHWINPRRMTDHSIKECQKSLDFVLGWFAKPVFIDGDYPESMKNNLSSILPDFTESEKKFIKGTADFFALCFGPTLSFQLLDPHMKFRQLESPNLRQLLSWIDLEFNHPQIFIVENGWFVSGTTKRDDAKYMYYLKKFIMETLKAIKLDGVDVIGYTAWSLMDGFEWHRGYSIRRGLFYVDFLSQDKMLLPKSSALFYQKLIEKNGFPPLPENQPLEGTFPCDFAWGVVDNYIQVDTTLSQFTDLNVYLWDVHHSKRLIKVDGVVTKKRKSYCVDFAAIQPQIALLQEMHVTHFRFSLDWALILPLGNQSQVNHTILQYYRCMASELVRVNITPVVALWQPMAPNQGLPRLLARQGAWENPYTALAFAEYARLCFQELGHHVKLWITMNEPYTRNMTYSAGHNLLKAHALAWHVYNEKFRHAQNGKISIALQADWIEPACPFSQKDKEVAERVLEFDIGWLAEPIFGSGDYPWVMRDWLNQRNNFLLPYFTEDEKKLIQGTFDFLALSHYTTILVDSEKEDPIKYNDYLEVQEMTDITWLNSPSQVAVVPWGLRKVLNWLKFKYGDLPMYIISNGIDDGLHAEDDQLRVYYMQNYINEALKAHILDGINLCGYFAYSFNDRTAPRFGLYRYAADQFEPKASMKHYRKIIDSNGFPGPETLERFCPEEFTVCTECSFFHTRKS
The test is described as follows: Surface plasmon resonance, heparin immobilized on chip. It is filed as binding. The conditions noted are these: SPR. On the procedure: For the direct quantitative analysis of label-free molecular interactions in real time, surface plasmon resonance studies were conducted using BIAcore T200 and T200 evaluation software (28975001, Cytiva). Sensor SA (BR100398) and CMS chips (BR100399) were from Cytiva. For the preparation of heparin chips, heparin (2 mg) and amine-PEG3-Biotin (2 mg, 21347, Pierce) were dissolved in 200 μl of H2O and 10 mg of NaCNBH3 was added. The reaction mixture was heated at 70° C. for 24 hours; an additional 10 mg of NaCNBH3 was added; and the reaction was heated at 70° C. for another 24 hours. After cooling to room temperature, the mixture was desalted with the spin column (3000 MWCO). Biotinylated heparin was collected, freeze dried, and used for chip preparation. Biotinylated heparin was immobilized to streptavidin chips according to the manufacturer's protocol. In brief, 20 μl of biotinylated heparin solution (0.1 mg/ml) in HBS-P running buffer (0.01 M N-2-hydroxyethylpiperazine-N′-2-ethanesulfonic acid, 0.15 M NaCl, 0.005% surfactant P20 [pH7.4]; BR100368, Cytiva) was injected over flow cell 2 of the streptavidin chip at a flow rate of 10 μl/min. The successful immobilization of heparin was confirmed by the observation of an approximately 200-resonance unit increase in the sensor chip. The control flow cell (flow cell 1) was prepared by 1-minute injection with saturated biotin. For the preparation of FGFR4 chips, Fc-FGFR4 protein (human ectodomain) was immobilized on research grade CMS chips according to the standard amine coupling protocol. Briefly, carboxymethyl groups on the CMS chip surface were first activated using an injection pulse of […] of an equimolar mix of N-ethyl-N-(dimethylaminopropyl) carbodiimide and N-hydroxysuccinimide (final concentration 0.05 M, mixed immediately before injection). After activation, FGFR4 was diluted to […] in 100 mM sodium acetate (pH 5.5) buffer and injected over the activated biosensor surface. Excess unreacted sites on the sensor surface were deactivated with a 35 μl injection of 1 M ethanolamine. A reference flow cell was prepared using an injection pulse of […] of an equimolar mix of N-ethyl-N-(dimethylaminopropyl) carbodiimide and N-hydroxysuccinimide (final concentration 0.05 M, mixed immediately before injection) followed by a 35 μl injection of 1 M ethanolamine. For the measurement of interactions between FGF23 (human protein), FGFR4 (human ectodomain protein), klotho (human ectodomain, self-made; see above), and heparin, samples were diluted in HBS-P buffer. Different dilutions of protein were injected at a flow rate of 30 μl/min with HBS-P buffer as running buffer. At the end of the sample injection, HBS-P buffer was flowed over the sensor surface to facilitate dissociation. After a 3-minute dissociation time, the sensor surface was regenerated by injecting with 30 μl of 2 M NaCl to get a fully regenerated surface. The response was monitored as a function of time (sensorgram) at 25° C.
(SPR reads the build-up and loss of mass on a sensor chip optically.)

For test [1], the system named is intact hearts isolated from adult mice. Briefly: Isolated heart contractility. The conditions noted are these: FGF23 9 ng/ml with heparin 0.06 USP/ml. More on the design: species or system mouse. On the procedure: Isolated heart contractility was performed as described previously. 14,70,71 Briefly, 2- to 3-month-old male CD-1 mice were anesthetized using 3% isoflurane and hearts were carefully removed and placed into oxygenated Ringer's solution composed of 140 mM NaCl, 2.0 mM KCl, 2.5 mM CaCl2), 1.0 mM MgSO4, 1.5 mM K2HPO4, 10 mM N-2-hydroxyethylpiperazine-N-2-ethanesulfonic acid, and 10 mM glucose (pH 7.4). Atria were then removed, and the intact ventricular muscle was attached to small metallic clips hung vertically from a force transducer (ADInstruments) between bipolar platinum-stimulating electrodes and suspended in 25-ml glass tissue chambers (ADInstruments). Heart muscles were perfused with Ringer's solution continuously bubbled with 100% O2 at room temperature. Hearts were stretched to the length of maximum force development and paced at 1 Hz (5 ms pulse duration, 30-60 V; Grass Instruments SD9 Square Pulse Stimulator). After a stable baseline was obtained, hearts were treated with either vehicle or FGF23 (9 ng/ml) alone or in combination with heparin (0.06 USP/ml) while contractile force output was monitored for 30 minutes. Contractile data were recorded and analyzed with LabChart 8 software (ADInstruments). Waveform changes were analyzed for peak contraction force (in millinewtons) and maximum slope of force development and presented as fold change from baseline values.

Regarding heparin [reference compound], the Kd – broadly, a measure of binding affinity in units of concentration – on klotho was found to be 0.015 µM. Further, at klotho (25° C.), the ka is reported as 8.0 × 10^4 1/MS and the kd is reported as 1.1 × 10^−3 1/S. For the same substance, the “FGF23-increased contraction force in the presence of heparin” value in test [1] is recorded as “further increase; also recorded: further elevated”.

Values taken from patent US20240384250A1, “FIBROBLAST GROWTH FACTOR 23 MODULATING COMPOUNDS” (THE UAB RESEARCH FOUNDATION, priority 2021, published 2024).
